Results reported in patent US8415486B2, “IAP inhibitors” (TetraLogic Pharmaceuticals Corp., priority 2009, dated 2013).

What was measured:
XIAP BIR-3 = molecular target: T1, XIAP BIR-3 (Homo sapiens, UniProt P98170); experiment: Fluorescence polarization binding to XIAP BIR-3 with labeled peptide AbuRPF-K(5-Fam)-NH2; details: 40 nM BIR3, 5 nM labeled peptide, reported as ranges
T1 construct: 40 nM of the respective IAP BIR3
Method: (§1) The binding affinities of the compounds are reported as a KD value (μM). Briefly, various concentrations of test peptides were mixed with 5 nM of the fluorescently labeled peptide (i.e., a mutated N-terminal Smac peptide—AbuRPF-K(5-Fam)-NH2) and 40 nM of the respective IAP BIR3 for 15 min at RT in […] of 0.1M Potassium Phosphate buffer, pH 7.5 containing 100 mg/ml bovine g-globulin. Following incubation, the polarization values (mP) were measured on a Victor2V (available from PerkinElmer Life Sciences) using a 485 nm excitation filter and a 520 nm emission filter. The reported binding affinities (KD values) are supplied as ranges (A=<0.1 μM, B=0.1 μM to 1 μM, C=>1 μM to 10 μM, D=>10 μM).

cIAP-1 BIR-3 = molecular target: T2, cIAP-1 BIR-3 (Homo sapiens, UniProt Q13490); experiment: Fluorescence polarization binding to cIAP-1 BIR-3 with labeled peptide AbuRPF-K(5-Fam)-NH2; details: 40 nM BIR3, 5 nM labeled peptide, reported as ranges, read-out: KD (c-IAP-1 BIR3)
T2 construct: 40 nM of the respective IAP BIR3
Method: as §1

[1] = test system: ovarian cancer cell line, SK-OV-3; experiment: SK-OV-3 cell growth inhibition (MTT, 72 hrs); type: cell-based; details: Homo sapiens, concentration giving 50% cell survival, reported as ranges
Method: Compounds of the invention also were tested for their ability to inhibit the growth of an ovarian cancer cell line, SK-OV-3. A known assay previously used for measuring cell growth (as described in Hansen, M. B., Nielsen, S. E., and Berg, K. (1989) J. Immunol. Methods 119, 203-210 and incorporated herein by reference in its entirety) was used. Briefly, SK-OV-3 cells are seeded in 96-well plates in McCoy's medium containing 10% fetal bovine serum albumin (5,000 per well) and incubated overnight at 37° C. The next day, test compounds are added at various concentrations (0.003-10 μM) and the plates are incubated at 37° C. for an additional 72 hrs. This incubation time was considered to be optimal for measuring inhibitory effects of the different compounds tested. 50 microliters of 5 mg/mL MTT reagent is added to each well and the plates are incubated at 37° C. for another three (3) hours. At the end of the three (3) hour incubation period, 50 microliters of DMSO is added to each well to dissolve cells and the optical density (OD) of the wells is measured with a microplate reader (Victor^2 1420, Wallac, Finland) at 535 nm. Cell survival (CS) was calculated using the following equation: CS=(OD treated well/mean OD control wells)×100%.
The CC50 (reported in the following tables), is defined as the drug concentration that results in 50% cell survival (CS), and is derived by calculating the point where the dose-response curve crosses the 50% CS point using GraphPad Prism. The reported CC50 values are supplied as ranges (A=<0.1 μM, B=0.1 μM to 1 μM, C=>1 μM to 10 μM, D=>10 μM).

T1 sequence (P98170 241-356 limits assumed): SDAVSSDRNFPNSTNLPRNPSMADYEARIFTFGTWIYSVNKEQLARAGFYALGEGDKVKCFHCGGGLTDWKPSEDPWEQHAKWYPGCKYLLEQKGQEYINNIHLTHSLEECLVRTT
T2 sequence (Q13490 253-363 limits assumed): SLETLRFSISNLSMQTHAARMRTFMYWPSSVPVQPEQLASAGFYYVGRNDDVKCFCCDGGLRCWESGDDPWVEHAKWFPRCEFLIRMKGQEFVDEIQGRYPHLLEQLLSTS

Kd (XIAP BIR-3) [nM]	Kd (cIAP-1 BIR-3) [nM]	SMILES	CC50 [1] [nM]
100 to 1000	< 100	CN[C@@H](C)C(=O)N[C@H](C(=O)N1CC[C@@H]2[C@H]1[C@@H](Oc1ccccc1)CN2C(=O)OC(C)(C)C)C(C)C [Example 1, 4-[3-Methyl-2-(2-methylamino-propionylamino)-butyryl]-3-phenoxy-hexahydro-pyrrolo[3,2-b]pyrrole-1-carboxylic acid tert-butyl ester]	< 100
< 100	< 100	CN[C@@H](C)C(=O)N[C@H](C(=O)N1CC[C@@H]2[C@H]1[C@@H](Oc1ccccc1)CN2S(C)(=O)=O)C(C)C [Example 3, N-[1-(4-Methanesulfonyl-6-phenoxy-hexahydro-pyrrolo[3,2-b]pyrrole-1-carbonyl)-2-methyl-propyl]-2-methylamino-propionamide]	< 100
100 to 1000	< 100	CN[C@@H](C)C(=O)N[C@H](C(=O)N1CC[C@H]2NC[C@H](Oc3ccccc3-c3ccccc3)[C@H]21)C1CCCCC1 [Example 4, N-{2-[6-(Biphenyl-2-yloxy)-hexahydro-pyrrolo[3,2-b]pyrrol-1-yl]-1-cyclohexyl-2-oxo-ethyl}-2-methylamino-propionamide]	100 to 1000
< 100	< 100	CN[C@@H](C)C(=O)N[C@H](C(=O)N1CC[C@H]2NC[C@H](Oc3cccc4ccccc34)[C@H]21)C1CCCCC1 [Example 8, N-{1-Cyclohexyl-2-[6-(naphthalen-1-yloxy)-hexahydro-pyrrolo[3,2-b]pyrrol-1-yl]-2-oxo-ethyl}-2-methylamino-propionamide]	100 to 1000
< 100	< 100	CN[C@@H](C)C(=O)N[C@H](C(=O)N1CC[C@@H]2[C@H]1[C@@H](Oc1ccc(F)cc1)CN2S(C)(=O)=O)[C@@H](C)OC [Example 11, N-{1-[6-(4-Fluoro-phenoxy)-4-methanesulfonyl-hexahydro-pyrrolo[3,2-b]pyrrole-1-carbonyl]-2-methoxy-propyl}-2-methylamino-propionamide]	< 100
< 100	< 100	CN[C@@H](C)C(=O)N[C@H](C(=O)N1CC[C@@H]2[C@H]1[C@@H](Oc1ccc(F)c(F)c1)CN2S(C)(=O)=O)C(C)C [Example 12, N-{1-[6-(3,4-Difluoro-phenoxy)-4-methanesulfonyl-hexahydro-pyrrolo[3,2-b]pyrrole-1-carbonyl]-2-methyl-propyl}-2-methylamino-propionamide]	< 100
< 100	< 100	CN[C@@H](C)C(=O)N[C@H](C(=O)N1CC[C@@H]2[C@H]1[C@@H](Oc1ccc(F)c(F)c1)CN2S(C)(=O)=O)[C@@H](C)OC [Example 14, N-{1-[6-(3,4-Difluoro-phenoxy)-4-methanesulfonyl-hexahydro-pyrrolo[3,2-b]pyrrole-1-carbonyl]-2-methoxy-propyl}-2-methylamino-propionamide]	< 100

More lines, now with the values behind:

SMILES	Kd (XIAP BIR-3) [nM]	Kd (cIAP-1 BIR-3) [nM]	CC50 [1] [nM]
CN[C@@H](C)C(=O)N[C@H](C(=O)N1CC[C@@H]2[C@H]1[C@@H](Oc1ccccc1)CN2C(C)=O)C(C)C [Example 2, N-[1-(4-Acetyl-6-phenoxy-hexahydro-pyrrolo[3,2-b]pyrrole-1-carbonyl)-2-methyl-propyl]-2-methylamino-propionamide]	1000 to 10000	< 100	< 100
CN[C@@H](C)C(=O)N[C@H](C(=O)N1CC[C@H]2NC[C@H](Oc3cccc4c3CCCC4)[C@H]21)C1CCCCC1 [Example 5, N-{1-Cyclohexyl-2-oxo-2-[6-(5,6,7,8-tetrahydro-naphthalen-1-yloxy)-hexahydro-pyrrolo[3,2-b]pyrrol-1-yl]-ethyl}-2-methylamino-propionamide]	100 to 1000	< 100	100 to 1000
CN[C@@H](C)C(=O)N[C@H](C(=O)N1CC[C@H]2NC[C@H](Oc3ccc4c(c3)CCCC4)[C@H]21)C1CCCCC1 [Example 6, N-{1-Cyclohexyl-2-oxo-2-[6-(5,6,7,8-tetrahydro-naphthalen-2-yloxy)-hexahydro-pyrrolo[3,2-b]pyrrol-1-yl]-ethyl}-2-methylamino-propionamide]	< 100	< 100	< 100
CN[C@@H](C)C(=O)N[C@H](C(=O)N1CC[C@H]2NC[C@H](Oc3ccc4ccccc4c3)[C@H]21)C1CCCCC1 [Example 7, N-{1-Cyclohexyl-2-[6-(naphthalen-2-yloxy)-hexahydro-pyrrolo[3,2-b]pyrrol-1-yl]-2-oxo-ethyl}-2-methylamino-propionamide]	< 100	< 100	< 100
CN[C@@H](C)C(=O)N[C@H](C(=O)N1CC[C@@H]2[C@H]1[C@@H](Oc1ccc(F)cc1)CN2S(C)(=O)=O)C(C)C [Example 9, N-{1-[6-(4-Fluoro-phenoxy)-4-methanesulfonyl-hexahydro-pyrrolo[3,2-b]pyrrole-1-carbonyl]-2-methyl-propyl}-2-methylamino-propionamide]	< 100	< 100	< 100
CN[C@@H](C)C(=O)N[C@H](C(=O)N1CC[C@@H]2[C@H]1[C@@H](Oc1ccc(F)cc1)CN2S(C)(=O)=O)C1CCCCC1 [Example 10, N-{1-Cyclohexyl-2-[6-(4-fluoro-phenoxy)-4-methanesulfonyl-hexahydro-pyrrolo[3,2-b]pyrrol-1-yl]-2-oxo-ethyl}-2-methylamino-propionamide]	< 100	< 100	< 100
CN[C@@H](C)C(=O)N[C@H](C(=O)N1CC[C@@H]2[C@H]1[C@@H](Oc1ccc(F)c(F)c1)CN2S(C)(=O)=O)C1CCCCC1 [Example 13, N-{1-Cyclohexyl-2-[6-(3,4-difluoro-phenoxy)-4-methanesulfonyl-hexahydro-pyrrolo[3,2-b]pyrrol-1-yl]-2-oxo-ethyl}-2-methylamino-propionamide]	< 100	< 100	< 100
CN[C@@H](C)C(=O)N[C@H](C(=O)N1CC[C@@H]2[C@H]1[C@@H](Oc1ccc(F)c(F)c1)CN2C1CCOCC1)C(C)(C)C [Example 15, N-{1-[6-(3,4-Difluoro-phenoxy)-4-(tetrahydro-pyran-4-yl)-hexahydro-pyrrolo[3,2-b]pyrrole-1-carbonyl]-2,2-dimethyl-propyl}-2-methylamino-propionamide]	100 to 1000	< 100	< 100
CCN1C[C@H](Oc2ccc(F)c(F)c2)[C@@H]2[C@H]1CCN2C(=O)[C@@H](NC(=O)[C@H](C)NC)C(C)(C)C [Example 16, N-{1-[6-(3,4-Difluoro-phenoxy)-4-ethyl-hexahydro-pyrrolo[3,2-b]pyrrole-1-carbonyl]-2,2-dimethyl-propyl}-2-methylamino-propionamide]	< 100	< 100	100 to 1000
CN[C@@H](C)C(=O)N[C@H](C(=O)N1CC[C@@H]2[C@H]1[C@@H](Oc1ccc(F)c(F)c1)CN2C1CCCC1)C(C)(C)C [Example 17, N-{1-[4-Cyclopentyl-6-(3,4-difluoro-phenoxy)-hexahydro-pyrrolo[3,2-b]pyrrole-1-carbonyl]-2,2-dimethyl-propyl}-2-methylamino-propionamide]	100 to 1000	< 100	< 100
CN[C@@H](C)C(=O)N[C@H](C(=O)N1CC[C@@H]2[C@H]1[C@@H](Oc1ccc(F)c(F)c1)CN2c1ncccn1)C(C)(C)C [Example 18, N-{1-[6-(3,4-Difluoro-phenoxy)-4-pyrimidin-2-yl-hexahydro-pyrrolo[3,2-b]pyrrole-1-carbonyl]-2,2-dimethyl-propyl}-2-methylamino-propionamide]	< 100	< 100	< 100
CN[C@@H](C)C(=O)N[C@H](C(=O)N1CC[C@@H]2[C@H]1[C@@H](Oc1ccc(F)c(F)c1)CN2S(C)(=O)=O)C(C)(C)C [Example 19, N-{1-[6-(3,4-Difluoro-phenoxy)-4-methanesulfonyl-hexahydro-pyrrolo[3,2-b]pyrrole-1-carbonyl]-2,2-dimethyl-propyl}-2-methylamino-propionamide]	< 100	< 100	< 100
